Reference: patent US20250313560A1, “Novel bicyclic benzylamido pyridine derivatives as SOS1 inhibitors” (Boehringer Ingelheim International GmbH, priority 2024, published 2025)
Like-named read-outs stand apart in the source and are kept apart here.

Tests used:
[1] = molecular target: SOS1 and KRAS G12C (Homo sapiens (Human), UniProt Q07889); experiment: KRAS::SOS1 AlphaScreen binding assay (KRAS G12C); conditions: average of at least two measurements
Method: (§1) Low IC50 values are indicative of high potency of the SOS1 inhibitor compound in this assay setting:
(§2) • GST-tagged SOS1 (564_1049_GST_TEV_ECO) produced in-house • 6xHis-Tev-K-RasG12D/G12C(1-169)Avi produced in-house • GDP (Sigma Cat No G7127) • AlphaLISA Glutathione Acceptor Beads (PerkinElmer, Cat No AL109) • AlphaScreen Streptavidin Donor Beads (PerkinElmer Cat No 6760002) • Assay plates: Proxiplate-384 PLUS, white (PerkinElmer, Cat No 6008289)
(§3) [formula] • KRAS::SOS1 GDP mix: • 7.5 nM (final assay concentration) K-RasG12C, 10 nM (final assay concentration) K-RasG12D, 10 μM (final assay concentration) GDP and 5 nM (final assay concentration) GST-SOS1 are mixed in assay buffer prior to use and kept at rt. Bead mix: • AlphaLISA Glutathione Acceptor Beads and AlphaScreen Streptavidin Donor Beads are mixed in the dark in assay buffer at a concentration of 10 μg/mL (final assay concentration) each prior to use and kept at rt.
(§4) Compounds are diluted to a final start concentration of 100 μM and are tested in duplicate. Assay-ready plates (ARPs) are generated using an Access Labcyte Workstation with a Labcyte Echo 550 or 555 acoustic dispenser. For compound a start concentration of 100 μM, 150 nL of compound solution is transferred per well in 11 concentrations in duplicate with serial 1:5 dilutions.
(§5) The assay is run using a fully automated robotic system in a darkened room below 100 Lux. 10 μL of KRAS::SOS1 GDP mix is added into columns 1-24 to the 150 nL of compound solution (final dilution in the assay 1:100, final DMSO concentration 1%).
(§6) After a 30 minute incubation time, 5 μL of bead mix is added into columns 1-23. Plates are kept at rt in a darkened incubator. After a further 60 minutes incubation, the signal is measured using a PerkinElmer Envision HTS Multilabel Reader using the AlphaScreen specifications from PerkinElmer. Each plate contains the following controls:
(§7) diluted DMSO+KRAS::SOS1 GDP mix+bead mix
(§8) diluted DMSO+KRAS::SOS1 GDP mix
(§9) Result calculation: IC50 values are calculated and analyzed using a 4 parametric logistic model.
(§10) Table 1: Inhibition values for KRAS G12C as well as for KRAS G12D. […] The value indicates an average value of at least two measurements.

[2] = molecular target: SOS1 and KRAS G12D (Homo sapiens (Human), UniProt Q07889); experiment: KRAS::SOS1 AlphaScreen binding assay (KRAS G12D); conditions: average of at least two measurements
SOS1 and KRAS G12D, sequence (Q07889 564-1049, stated change not applied): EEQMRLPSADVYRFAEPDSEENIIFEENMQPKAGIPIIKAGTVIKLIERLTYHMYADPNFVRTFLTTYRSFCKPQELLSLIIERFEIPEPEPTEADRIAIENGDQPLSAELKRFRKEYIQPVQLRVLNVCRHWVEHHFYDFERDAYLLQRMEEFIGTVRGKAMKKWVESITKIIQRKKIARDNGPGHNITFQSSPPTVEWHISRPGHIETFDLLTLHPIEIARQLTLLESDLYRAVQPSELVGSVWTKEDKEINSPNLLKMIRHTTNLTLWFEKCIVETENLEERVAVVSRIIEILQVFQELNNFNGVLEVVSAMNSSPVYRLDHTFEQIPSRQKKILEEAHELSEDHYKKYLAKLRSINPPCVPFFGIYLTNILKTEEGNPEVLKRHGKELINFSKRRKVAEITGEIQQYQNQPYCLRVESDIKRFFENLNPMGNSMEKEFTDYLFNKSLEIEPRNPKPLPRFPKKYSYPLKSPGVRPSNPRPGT
Method: as §1, §2, §3, §4, §5, §6, §7, §8, §9, §10

[3] = tested on: ERK phosphorylation in NCI-H358 SOS2 KO cells (KRAS G12C); experiment: Erk phosphorylation assay; type: cell-based, human; conditions: EGF stimulated, average of at least two measurements, read-out: pERK IC50
Method: Low IC50 values are indicative of high potency of the SOS1 inhibitor compounds in this assay setting.
ERK phosphorylation assays are performed using the following human cell line: • NCI-H358 SOS2 KO (Hofmann, Gmachl, Ramharter et al, Cancer Discov. 2021, 11(1):142-15): human lung cancer with a KRAS G12C mutation;
NCI-H358 SOS2 KO are seeded at 50000 cells per well in 60 μL of DMEM with 2% FBS, in Greiner TC 384 plates. The cells are incubated overnight in an incubator at 37° C. and 5% CO2 in a humidified atmosphere. 60 nL compound solution (10 mM DMSO stock solution) is then added using a Beckman Coulter Labcyte Echo 550 device. After 50 min incubation in the aforementioned incubator, 5 nl EGF are added to each well for a final concentration of approx. 8 ng/mL using a Beckman Coulter Labcyte Echo 550 device and cells are incubated for another 10-15 minutes before lysis. The medium is removed, and the cells are lysed by addition of 20 μL of 1.6-fold lysis buffer from the AlphaLISA SureFire Ultra pERK1/2 (Thr202/Tyr204) Assay Kit with added protease inhibitors. After 20 minutes of incubation at rt with shaking, 6 μL of each lysate sample is transferred to a 384-well Proxiplate and analyzed for pERK (Thr202/Tyr204) with the AlphaLISA SureFire Ultra pERK1/2 (Thr202/Tyr204) Assay Kit. 3 μL Acceptor Mix and 3 μL Donor Mix are added under subdued light and incubated for 2 h at rt in the dark, before the signal is measured on a Perkin Elmer Envision plate reader using 384 AlphaScreen settings for Proxiplates. Data are fitted by iterative calculation with variable hill slope. The sigmoidal curve slope is fitted using a default fitting curve to ascertain IC50 values.
Table 2: Erk Phosphorylation assay. The value indicates an average value of at least two measurements.

[4] = molecular target: P450 3A4 (Homo sapiens (Human), UniProt P08684); experiment: Cytochrome P450 isoenzyme inhibition assay (P450 3A4, midazolam); type: in vitro ADME; conditions: human liver microsomes, Midazolam as substrate; read-out: CYP3A4 inhibition IC50
P450 3A4, sequence (P08684 whole entry): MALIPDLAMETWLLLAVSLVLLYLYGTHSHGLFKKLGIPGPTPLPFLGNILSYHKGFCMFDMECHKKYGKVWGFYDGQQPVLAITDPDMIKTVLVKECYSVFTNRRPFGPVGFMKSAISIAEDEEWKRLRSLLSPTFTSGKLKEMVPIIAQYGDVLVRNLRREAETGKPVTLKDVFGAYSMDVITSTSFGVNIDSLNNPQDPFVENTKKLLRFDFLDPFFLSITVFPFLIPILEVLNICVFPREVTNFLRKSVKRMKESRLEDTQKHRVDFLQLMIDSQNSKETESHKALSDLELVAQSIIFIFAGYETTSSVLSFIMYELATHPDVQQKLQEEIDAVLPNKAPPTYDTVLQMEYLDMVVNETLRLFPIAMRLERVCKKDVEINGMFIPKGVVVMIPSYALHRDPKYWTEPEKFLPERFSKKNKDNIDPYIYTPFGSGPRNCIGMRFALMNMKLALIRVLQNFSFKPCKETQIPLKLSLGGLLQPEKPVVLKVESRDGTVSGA
Method: For the following cytochrome P450 isoenzymes, these substrates and metabolic reactions are monitored: P450 3A4: hydroxylation of Midazolam (MDZ).
The final incubation volume contains TRIS buffer (0.1 M), MgCl2 (5 mM), a certain concentration of human liver microsomes dependent on the P450 isoenzyme measured (P450 3A4: 0.1 mg/ml) and a certain concentration of the individual substrate for each isoenzyme (P450 3A4: Midazolam 5 μM).
The effect of the test compound is determined at five different concentrations in duplicate (e.g. highest concentration 50 μM with subsequent serial 1:4 dilutions) or without test compound (high control). Following a short preincubation period, reactions are started with the cofactor (NADPH, 1 mM) and stopped by cooling the incubation down to 8° C. and subsequently by addition of one volume of ACN. An internal standard solution—usually the stable isotope of the formed metabolite—is added after quenching of incubations. Peak area analyte (=metabolite formed) and internal standard is determined by LC-MS/MS. The resulting peak area ratio analyte to internal standard in these incubations is compared to a control activity containing no test compound. Within each of the assay runs, the IC50 of a positive control inhibitor dependent on the P450 isoenzyme measured (P450 3A4: ketoconazole) is determined. The assay results are plotted against compound concentrations to calculated IC50 values (half maximal inhibitory concentrations) for inhibitory compounds utilizing Software IDBS E-WorkBook.
Table 4: Inhibition of P450 isoenzyme 3A^4.

[5] = molecular target: CYP3A4 (Homo sapiens (Human), UniProt P08684); experiment: Mechanism-based inhibition of CYP3A4 assay (MBI 3A4); type: in vitro ADME; conditions: human liver microsomes, midazolam substrate, hydroxy-midazolam formation after 30 min preincubation relative to 0 min; for inhibition at 30 min: human, probe midazolam 15 μM (hydroxy-midazolam formation), read-out: MBI inhibition % ctrl. [%] with MDZ
CYP3A4, sequence (P08684 whole entry): as above
Method: Mechanism-Based Inhibition of CYP3A4 assay (MBI 3A4): The mechanism-based inhibition towards CYP3A4 is assayed in human liver microsomes with midazolam as substrate. The test compounds and water control (wells w/o test compound) are preincubated in presence of NADPH (1 mM) with human liver microsomes (0.2 mg/mL) at a concentration of 0, 5 and 25 μM for 0, 10 and 30 min. After preincubation, the incubate is diluted 1:10 (to 0.02 mg/mL) and the substrate midazolam (15 μM) is added for the main incubation (10 min). The main incubation is quenched with ACN and the formation of hydroxy-midazolam is quantified via LC/MS-MS. The formation of hydroxy-midazolam from the 30 min preincubation relative to the formation from the 0 min preincubation is used as a readout. Values of less than 100% mean that the substrate midazolam is metabolized to a lower extent upon 30 min preincubation compared to 0 min preincubation. In general, low effects upon 30 min preincubation are desired (corresponding to values close to 100%/not different to the values determined with water control).
Table 5: Mechanism-based inhibition of P450 isoenzyme 3A4 with midazolam as substrate.

[6] = tested on: human hepatocytes; experiment: Metabolic stability in human hepatocytes; conditions: 1 μM test compound, 50% human serum, percentage of liver blood flow
Method: The metabolic degradation of a test compound is performed with hepatocytes in suspension. After recovery from cryopreservation, human hepatocytes are diluted in Dulbecco's modified eagle medium (supplemented with 3.5 μg glucagon/500 mL, 2.5 mg insulin/500 mL, 3.75 mg hydrocortisone/500 mL, 50% human serum) to obtain a final cell density of 1.0×10^6 cells/mL. Following a preincubation in a cell culture incubator (37° C., 10% CO2), test compound dissolved in DMSO is mixed with the hepatocyte suspension, resulting in a final test compound concentration of 1 μM and a final DMSO concentration of 0.05%.
The cell suspension is incubated at 37° C. (cell culture incubator, horizontal shaker) and samples are removed from the incubation after 0, 0.5, 1, 2, 4 and 6 hours. Samples are quenched with acetonitrile (containing internal standard) and pelleted by centrifugation. The supernatant is transferred to a deep-well plate and prepared for analysis of decline of parent compound by HPLC-MS/MS.
The percentage of remaining test compound is calculated using the peak area ratio (test compound/internal standard) of each incubation time point relative to the time point 0 peak area ratio. The log-transformed data are plotted versus incubation time, and the absolute value of the slope obtained by linear regression analysis is used to estimate in vitro half-life (T1/2).
CL_[sequence]_IN VIVO[mL/min/kg]=(CL_[sequence][μL/min/10^6cells]×hepatocellularity[10^6cells/g liver]×liver factor[g/kg body weight])/1000
Hepatic in vivo blood clearance (CL) is predicted according to the well-stirred liver model considering an average liver blood flow (QH) of 20.7 mL/min/kg:
CL[mL/min/kg]=CL_[sequence]_IN VIVO[mL/min/kg]×hepatic blood flow[mL/min/kg]/(CL_[sequence]_IN VIVO[mL/min/kg]+hepatic blood flow[mL/min/kg])
Results are expressed as percentage of hepatic blood flow:
QH[%]=CL[mL/min/kg]/hepatic blood flow[mL/min/kg])

[7] = Homo sapiens, NCI-H358, NCI-H358 SOS2 KO cells

SOS1 and KRAS G12C, sequence (Q07889 564-1049, stated change not applied): as the sequence (Q07889 564-1049, stated change not applied) above

SMILES | IC50 [1] [nM] | IC50 [2] [nM] | IC50 ([3]; NCI-H358 SOS2 KO cells) [nM] | IC50 [4] [nM] | inhibition at 30 min [5] [%] | Hepatic clearance - QH[%] in human hepatocytes [6] [%] | IC50 [3, 7] [nM] | MBI inhibition % ctrl. [%] with MDZ [5] [%]
C[C@@H](NC(=O)c1cc(N2CCC(O)(C3CCCN3)CC2)c2ncnn2c1)c1cccc(C(F)F)c1F (single isomer, unassigned) [Example E38a] | 66 | 45 | – | > 50000 | 94 | 10 | 112 | –
C[C@@H](NC(=O)c1cc(N2CCC(O)(C3CCCN3)CC2)c2ncnn2c1)c1cccc(C(F)F)c1F (single isomer, unassigned) [Example E38b] | 59 | 41 | 217 | > 50000 | – | 11 | – | 86
C[C@@H](NC(=O)c1cc(N2CCC(N3CCCC(C)(O)C3)CC2)c2ncnn2c1)c1cccc(C(F)(F)F)c1F (single isomer, unassigned) [Example E47a] | 96 | 99 | – | > 50000 | 97 | 30 | 162 | –
C[C@@H](NC(=O)c1cc(N2CCC(NC3COCC3O)CC2)c2ncnn2c1)c1cccc(C(F)F)c1F (single isomer, unassigned) [Example cis-E16a] | 45 | 41 | – | > 50000 | 92 | 32 | 320 | –
C[C@@H](NC(=O)c1cc(N2CCC(N3CC4CC4(CO)C3)CC2)c2ncnn2c1)c1cccc(C(F)F)c1F (single isomer, unassigned) [Example cis-E21a] | 81 | 61 | – | > 50000 | 102 | 25 | 216 | –
C[C@@H](NC(=O)c1cc(N2CCC(N3CC4CC4(CO)C3)CC2)c2ncnn2c1)c1cccc(C(F)F)c1F (single isomer, unassigned) [Example cis-E21b] | 78 | 82 | 242 | > 50000 | – | 38 | – | 96
C[C@@H](NC(=O)c1cc(N2CCC3CCNC3C2)c2ncnn2c1)c1cccc(C(F)(F)F)c1F (single isomer, unassigned) [Example cis-E52b] | 71 | 70 | 40 | > 50000 | 98 | 14 | – | –

Now those with a lower IC50 [1], led by results:

IC50 [1] [nM] | IC50 [2] [nM] | IC50 ([3]; NCI-H358 SOS2 KO cells) [nM] | IC50 [4] [nM] | inhibition at 30 min [5] [%] | Hepatic clearance - QH[%] in human hepatocytes [6] [%] | IC50 [3, 7] [nM] | MBI inhibition % ctrl. [%] with MDZ [5] [%] | SMILES
42 | 40 | 46 | > 50000 | 91 | 25 | – | – | C[C@@H](NC(=O)c1cc(N2CCC(N3CCCC(O)CC3)CC2)c2ncnn2c1)c1cccc(C(F)(F)F)c1F (single isomer, unassigned) [Example E43a]
41 | 45 | 198 | > 50000 | – | 28 | – | 88 | C[C@@H](NC(=O)c1cc(N2CCC(N3CCCC(C)(O)C3)CC2)c2ncnn2c1)c1cccc(C(F)(F)F)c1F (single isomer, unassigned) [Example E47b]
41 | 38 | 367 | > 50000 | 95 | 26 | – | – | C[C@@H](NC(=O)c1cc(N2CCC(NC3COCC3O)CC2)c2ncnn2c1)c1cccc(C(F)(F)F)c1F (single isomer, unassigned) [Example cis-E41b]
38 | 32 | 201 | > 50000 | 98 | 30 | – | – | C[C@@H](NC(=O)c1cc(N2CCC(N3CCCC(O)CC3)CC2)c2ncnn2c1)c1cccc(C(F)F)c1F (single isomer, unassigned) [Example E17b]
26 | 19 | 316 | > 50000 | – | 24 | – | 87 | C[C@@H](NC(=O)c1cc(N2CCC(NC3COCC3O)CC2)c2ncnn2c1)c1cccc(C(F)F)c1F (single isomer, unassigned) [Example cis-E16b]
26 | 26 | 183 | > 50000 | – | 18 | – | 101 | C[C@@H](NC(=O)c1cc(N2CCC(NC3COCC3O)CC2)c2ncnn2c1)c1cccc(C(F)(F)F)c1F (single isomer, unassigned) [Example trans-E42a]
